Assay results reported in the NIST ThermoML archive (doi:10.1016/j.jct.2018.07.013).
Numbers after ± are expanded uncertainties.

Key:
[1] = 298.15 K, 100 kPa, Liquid; for speed of sound: Frequency=3 MHz, Single path-length method; for mass density: Vibrating tube method
[2] = xn = mol fraction of the nth substance listed; conditions: 298.15 K, 100 kPa, Liquid; for speed of sound: Frequency=3 MHz, Single path-length method; for mass density: Vibrating tube method
[3] = excess molar enthalpy (molar enthalpy of mixing); xn = mol fraction of the nth substance listed; conditions: 298.15 K, 100 kPa, Liquid, Power-compensation calorimetry

CCOC(=O)C(C)O (racemic) [DL-ethyl lactate]
[1]
Conditions	mass density [kg/m3]	speed of sound [m/s]
–	1028.45 ± 0.12	1279.3 ± 0.59

CCOC(=O)C(C)O (stereo not drawn) [DL-ethyl lactate] + CCCCO
Conditions	excess molar enthalpy, [3] [kcal/mol]	mass density, [2] [kg/m3]	speed of sound, [2] [m/s]
x1 = 0.048	0.0471 ± 0.00143	–	–
x1 = 0.0502	–	819.65 ± 0.15	1241.3 ± 0.52
x1 = 0.0914	–	830.65 ± 0.15	1242.1 ± 0.52
x1 = 0.103	0.0841 ± 0.00143	–	–
x1 = 0.1929	–	856.89 ± 0.14	1244.7 ± 0.53
x1 = 0.233	0.136 ± 0.00191	–	–
x1 = 0.3041	–	884.31 ± 0.13	1248.3 ± 0.54
x1 = 0.314	0.149 ± 0.00191	–	–
x1 = 0.4061	–	908.31 ± 0.13	1252.3 ± 0.54
x1 = 0.414	0.154 ± 0.00191	–	–
x1 = 0.4991	–	929.27 ± 0.13	1256 ± 0.55
x1 = 0.527	0.146 ± 0.00191	–	–
x1 = 0.6037	–	951.84 ± 0.12	1260.8 ± 0.56
x1 = 0.626	0.127 ± 0.00167	–	–
x1 = 0.707	–	973.11 ± 0.12	1265.9 ± 0.56
x1 = 0.714	0.0992 ± 0.00143	–	–
x1 = 0.7968	–	990.82 ± 0.12	1270.1 ± 0.57
x1 = 0.82	0.0588 ± 0.0012	–	–
x1 = 0.8927	–	1008.98 ± 0.12	1274.6 ± 0.58
x1 = 0.91	0.0299 ± 0.000956	–	–
x1 = 0.951	0.0129 ± 0.000884	–	–
x1 = 0.9527	–	1019.97 ± 0.12	1277.3 ± 0.59
x1 = 1	–	1028.45 ± 0.12	1279.3 ± 0.59

CCOC(=O)C(C)O (stereo not drawn) [DL-ethyl lactate] + CCCO
Conditions	excess molar enthalpy, [3] [kcal/mol]	mass density, [2] [kg/m3]	speed of sound, [2] [m/s]
x1 = 0.025	0.0229 ± 0.00172	–	–
x1 = 0.0489	–	816.57 ± 0.16	1211.1 ± 0.55
x1 = 0.054	0.0473 ± 0.00143	–	–
x1 = 0.1025	–	834.15 ± 0.15	1216.4 ± 0.55
x1 = 0.117	0.0815 ± 0.00143	–	–
x1 = 0.2027	–	864.58 ± 0.14	1225.8 ± 0.56
x1 = 0.216	0.109 ± 0.00143	–	–
x1 = 0.3036	–	892.35 ± 0.14	1235.2 ± 0.56
x1 = 0.309	0.12 ± 0.00167	–	–
x1 = 0.3973	–	915.89 ± 0.13	1242.5 ± 0.56
x1 = 0.404	0.121 ± 0.00167	–	–
x1 = 0.4963	–	938.64 ± 0.13	1250.2 ± 0.57
x1 = 0.517	0.115 ± 0.00143	–	–
x1 = 0.6012	–	960.68 ± 0.12	1257.8 ± 0.57
x1 = 0.612	0.101 ± 0.00143	–	–
x1 = 0.6951	–	978.76 ± 0.12	1263.9 ± 0.58
x1 = 0.712	0.0765 ± 0.0012	–	–
x1 = 0.8061	–	998.37 ± 0.12	1270.4 ± 0.58
x1 = 0.814	0.0459 ± 0.000956	–	–
x1 = 0.905	0.021 ± 0.000669	–	–
x1 = 0.9076	–	1014.74 ± 0.12	1275.6 ± 0.59
x1 = 0.9482	–	1020.9 ± 0.12	1277.3 ± 0.59
x1 = 1	–	1028.45 ± 0.12	1279.3 ± 0.59

CCOC(=O)C(C)O (stereo not drawn) [DL-ethyl lactate] + CCO
Conditions	excess molar enthalpy, [3] [kcal/mol]	mass density, [2] [kg/m3]	speed of sound, [2] [m/s]
x1 = 0.0522	–	809.88 ± 0.17	1158.1 ± 0.55
x1 = 0.054	0.0177 ± 0.000645	–	–
x1 = 0.0957	–	828.74 ± 0.16	1169.7 ± 0.55
x1 = 0.114	0.0337 ± 0.000717	–	–
x1 = 0.1946	–	866.53 ± 0.15	1192.8 ± 0.56
x1 = 0.225	0.0502 ± 0.000717	–	–
x1 = 0.2902	–	897.43 ± 0.14	1211.3 ± 0.56
x1 = 0.312	0.0554 ± 0.000717	–	–
x1 = 0.4011	–	927.58 ± 0.13	1229.3 ± 0.56
x1 = 0.42	0.0574 ± 0.000717	–	–
x1 = 0.4995	–	950.3 ± 0.12	1240.8 ± 0.57
x1 = 0.511	0.0538 ± 0.000717	–	–
x1 = 0.6076	–	971.75 ± 0.12	1252.8 ± 0.57
x1 = 0.635	0.0457 ± 0.000717	–	–
x1 = 0.6931	–	986.54 ± 0.12	1261.4 ± 0.58
x1 = 0.737	0.0349 ± 0.000717	–	–
x1 = 0.7965	–	1002.43 ± 0.12	1268.7 ± 0.58
x1 = 0.829	0.0217 ± 0.000478	–	–
x1 = 0.9047	–	1017.03 ± 0.12	1275.2 ± 0.59
x1 = 0.93	0.0097 ± 0.000359	–	–
x1 = 0.9511	–	1022.75 ± 0.12	1277.3 ± 0.59
x1 = 0.96	0.00478 ± 0.000406	–	–
x1 = 1	–	1028.45 ± 0.12	1279.3 ± 0.59

CCOC(=O)C(C)O (stereo not drawn) [DL-ethyl lactate] + CO
Conditions	excess molar enthalpy, [3] [kcal/mol]	mass density, [2] [kg/m3]	speed of sound, [2] [m/s]
x1 = 0.0432	–	816.63 ± 0.19	1125.5 ± 0.6
x1 = 0.051	-0.0088 ± 0.000382	–	–
x1 = 0.0935	–	846.09 ± 0.17	1149.1 ± 0.56
x1 = 0.104	-0.0166 ± 0.00043	–	–
x1 = 0.1911	–	890.78 ± 0.15	1187 ± 0.56
x1 = 0.209	-0.0299 ± 0.000478	–	–
x1 = 0.2979	–	926.51 ± 0.13	1215.4 ± 0.56
x1 = 0.327	-0.0361 ± 0.000478	–	–
x1 = 0.3976	–	951.94 ± 0.12	1234.5 ± 0.57
x1 = 0.437	-0.0378 ± 0.000478	–	–
x1 = 0.5018	–	972.85 ± 0.12	1250.5 ± 0.57
x1 = 0.569	-0.0356 ± 0.000478	–	–
x1 = 0.5789	–	985.46 ± 0.12	1259 ± 0.57
x1 = 0.621	-0.0313 ± 0.000478	–	–
x1 = 0.695	–	1000.96 ± 0.11	1270.3 ± 0.58
x1 = 0.763	-0.0199 ± 0.000406	–	–
x1 = 0.8045	–	1012.66 ± 0.12	1275.9 ± 0.58
x1 = 0.83	-0.0134 ± 0.000359	–	–
x1 = 0.9018	–	1021.2 ± 0.12	1278.2 ± 0.59
x1 = 0.905	-0.00672 ± 0.000287	–	–
x1 = 0.958	-0.00263 ± 0.000263	–	–
x1 = 0.9622	–	1025.79 ± 0.12	1279 ± 0.59
x1 = 1	–	1028.45 ± 0.12	1279.3 ± 0.59

CCCCO [butan-1-ol]
[1]
Conditions	mass density [kg/m3]	speed of sound [m/s]
–	805.95 ± 0.14	1240.4 ± 0.52

CCCCO [butan-1-ol] + CCOC(=O)C(C)O
[2], x2 = 0
Conditions	mass density [kg/m3]	speed of sound [m/s]
–	805.95 ± 0.14	1240.4 ± 0.52

CCCCO [butan-1-ol] + COC(=O)C(C)O
[2], x2 = 0
Conditions	mass density [kg/m3]	speed of sound [m/s]
–	805.95 ± 0.14	1240.4 ± 0.52

CCO [ethanol]
[1]
Conditions	mass density [kg/m3]	speed of sound [m/s]
–	785.16 ± 0.15	1143.2 ± 0.55

CCO [ethanol] + CCOC(=O)C(C)O
[2], x2 = 0
Conditions	mass density [kg/m3]	speed of sound [m/s]
–	785.16 ± 0.15	1143.2 ± 0.55

CCO [ethanol] + COC(=O)C(C)O
[2], x2 = 0
Conditions	mass density [kg/m3]	speed of sound [m/s]
–	785.16 ± 0.15	1143.2 ± 0.55
